Test results reported in paper PMC5546478 (Oncotarget, 2017).
pIC50: −log10 of the molar value. Entries after “also recorded” stand apart in the source; their conditions may differ. Counter-ions that a name gives are not always drawn. Like-named read-outs stand apart in the source and are kept apart here. Each block holds one compound with its values, some of them ahead of it.

Tests used:
mutant IDH1 = settings: cited from earlier work
WT IDH1 = biological target: T1, WT IDH1 (Homo sapiens, UniProt O75874); experiment: In vitro enzyme inhibition assay, WT IDH1 (NADPH production); type: biochemical; settings: for pIC50 / IC50 for enzyme activities, WT: n.p = no clear inhibitory detected; for pIC50: read-out: IC50 for enzyme activities, WT
T1 construct: made in house
Method: For inhibition assay, firstly, triplicate samples of compounds were incubated with the protein for 5 min.

[1] = tested on: mutant IDH1 (D-2HG production); experiment: D-2HG concentrations in tumors and serum of HT1080 xenograft mice; type: in vivo, CB-17/Icr-scid mice; settings: for percentage inhibition of D-2HG production in tumor tissue: normalized to control group; for R-2HG level in serum: model 5.97 ±2.58; for R-2HG level in tumor tissue: model 364.01 ±118.43
H3K9me3 in HT1080 cells [2] = experiment: Histone methylation H3K9me3 by western blot; type: cell-based, human; settings: 48 hours
HT1080 xenograft = experiment: Antitumor efficacy in HT1080 xenograft mouse model; type: in vivo, CB-17/Icr-scid mice; settings: for Tumor weight: after 2 weeks' treatment, control 2.32 ± 0.93 g; for Tumor volume: model 1879.61±244.35
From the text: In the xenograft model, HT1080 cells were inoculated subcutaneously into the right flank of male CB-17/Icr-scid mice.

[3] = 50 and 100 mg/kg per day via gavage
H3K9me3 in HT1080 cells [4] = experiment: Immunocytochemical staining of H3K9me3; type: cell-based, human
HT1080 cells = experiment: Flow cytometric analysis for apoptosis (Annexin V/PI); type: cell-based, human; settings: control 2%
Method: Then the cells were harvested, washed twice with ice-cold PBS, and mixed in 100 μL of 1 × binding buffer (10 mM HEPES/NaOH, pH 7.4, 140 mM NaCl, 2.5 mM CaCl2). After culturing for 15 min at room temperature in Annexin-V/PI (Nanjing KeyGen Biotech. Inc.) double staining liquid, the cells were examined by flow cytometry (BD Biosciences, FACSCalibur).

[5] = tested on: H3K9me3 in HT1080 tumor tissue; experiment: Immunohistochemistry for H3K9me3 in xenograft tumor tissues; type: in vivo, CB-17/Icr-scid mice; settings: clomifene treated groups (50, 100 mg/kg) vs vehicle

T1 sequence (O75874 whole entry): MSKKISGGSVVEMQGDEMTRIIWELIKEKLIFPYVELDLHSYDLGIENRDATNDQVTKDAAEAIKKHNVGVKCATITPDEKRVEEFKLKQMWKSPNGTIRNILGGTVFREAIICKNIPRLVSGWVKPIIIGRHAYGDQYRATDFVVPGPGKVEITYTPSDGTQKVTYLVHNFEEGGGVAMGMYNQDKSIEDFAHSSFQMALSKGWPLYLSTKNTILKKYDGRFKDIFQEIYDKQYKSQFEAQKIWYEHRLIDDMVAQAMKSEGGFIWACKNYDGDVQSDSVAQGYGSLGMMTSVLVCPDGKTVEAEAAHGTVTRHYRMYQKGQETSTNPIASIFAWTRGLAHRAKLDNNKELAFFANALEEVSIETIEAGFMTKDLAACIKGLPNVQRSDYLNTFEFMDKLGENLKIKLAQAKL

SMILES: CC(C)(C)CC(C)(C)c1cc(Cn2ccnc2)c(O)c(Cn2ccnc2)c1 [2,6-bis (1H-imidazol-1-ylmethyl)-4-(2,4,4-trimethylpentan-2-yl) phenol]
- manner of inhibition of mutant IDH1 (mutant IDH1; ligand of crystal structure 4UMX, binds allosteric site): non-competitive and allosteric inhibitor

SMILES: Cc1ccccc1C(C(=O)NC1CCCCC1)N(C(=O)Cn1ccnc1C)c1cccc(F)c1 (centres unmarked) [AGI-5198]
- pIC50 (WT IDH1): < 3.70
- kinetic mechanism with respect to NADPH (mutant IDH1; mutant IDH1): uncompetitive
- kinetic mechanism with respect to α-KG (mutant IDH1; mutant IDH1): competitive inhibitor

SMILES: COc1ccc(-c2ccc3cc(C(=O)O)ccc3c2)cc1C12CC3CC(CC(C3)C1)C2 [Adapalene]
- IC50 for enzyme activities, WT (WT IDH1): n.p

SMILES: CO[C@@]1(NC(=O)Cc2cccs2)C(=O)N2C(C(=O)O)=C(COC(N)=O)CS[C@@H]21 [Cefoxitin sodium]
- pIC50 (WT IDH1): < 3.70

SMILES: CCN(CC)CCOc1ccc(C(=C(Cl)c2ccccc2)c2ccccc2)cc1 [Clomifene]
- percentage inhibition of R-2HG in serum ([1]; 50 mg/kg): 51.59%
- percentage inhibition of D-2HG production in tumor tissue ([1]; 50 mg/kg): 23.81%
- R-2HG level in serum ([1]; 50 mg/kg): 2.89 ± 1.06 µM
- R-2HG level in tumor tissue ([1]; 50 mg/kg): 277.34 ± 78.03 µg/g
- percentage inhibition of D-2HG production in tumor tissue ([1]; 100 mg/kg): 57.38%
- R-2HG level in serum ([1]; 100 mg/kg): 1.47 ± 1.38 µM
- R-2HG level in tumor tissue ([1]; 100 mg/kg): 155.12 ± 74.34 µg/g
- level of histone methylation (H3K9me3) (H3K9me3 in HT1080 cells [2]): significantly reduced; also recorded: markedly decrease
- Effect on WT IDH1 (WT IDH1; at 200 μM): did not obviously alter
- pIC50 (WT IDH1): < 3.70
- percentage inhibition of tumor volume (HT1080 xenograft; 50 mg/kg per day via gavage): 51.71%
- percentage inhibition of tumor weight (HT1080 xenograft; 50 mg/kg per day via gavage): 38.36%
- Tumor weight (HT1080 xenograft; 50 mg/kg per day via gavage): 1.43 ± 0.42 g
- percentage inhibition of tumor weight (HT1080 xenograft; 50 mg/kg per day via gavage, listed as clomifene): about 60%
- Tumor volume (HT1080 xenograft; 50 mg/kg per day via gavage): 907.73±176.63 mm3
- percentage inhibition of tumor volume (HT1080 xenograft; 100 mg/kg per day via gavage): 65.80%
- percentage inhibition of tumor weight (HT1080 xenograft; 100 mg/kg per day via gavage): 59.48%
- Tumor weight (HT1080 xenograft; 100 mg/kg per day via gavage): 0.94 ± 0.61 g
- Tumor volume (HT1080 xenograft; 100 mg/kg per day via gavage): 642.91±127.02 mm3
- tumor growth of HT1080-bearing mice (HT1080 xenograft; oral 100 mg/kg and 50 mg/kg per day): significantly suppressed
- effect on mouse body weight [3]: no effect
- effect on mouse body weight ([3]; listed as clomifene): no obvious side effects on animals’ growth
- mutant IDH1-mediated H3K9me3 (H3K9me3 in HT1080 cells [4]): substantially and dose-dependently decreased
- apoptotic death (HT1080 cells; 10 μM): 12.88%
- apoptotic death (HT1080 cells; 20 μM): 23.61%
- expressions of H3K9me3 in tumor tissues [5]: substantially reduced

More lines, now with the values ahead:

- IC50 for enzyme activities, WT (WT IDH1): n.p^e
SMILES: CN(C)[C@@H]1C(O)=C(C(N)=O)C(=O)[C@@]2(O)C(O)=C3C(=O)c4c(O)ccc(Cl)c4[C@@H](O)[C@H]3C[C@@H]12 [Demeclocycline]

- IC50 for enzyme activities, WT (WT IDH1): n.p
SMILES: OC(Cn1cncn1)(Cn1cncn1)c1ccc(F)cc1F [Fluconazole]

- IC50 for enzyme activities, WT (WT IDH1): n.p
SMILES: C=C1c2cccc(O)c2C(=O)C2=C(O)[C@]3(O)C(=O)C(C(N)=O)=C(O)[C@@H](N(C)C)[C@@H]3[C@@H](O)[C@H]12 [Metacycline]

- IC50 for enzyme activities, WT (WT IDH1): n.p
SMILES: CCCNCC(O)COc1ccccc1C(=O)CCc1ccccc1 (centres unmarked) [Propafenone Hydrochloride]

- pIC50 (WT IDH1): < 3.70
SMILES: O=C(NC[C@H]1CN(c2ccc(N3CCOCC3=O)cc2)C(=O)O1)c1ccc(Cl)s1 [Rivaroxaban]

- IC50 for enzyme activities, WT (WT IDH1): n.p
SMILES: CN(C)c1cc(NC(=O)CNC(C)(C)C)c(O)c2c1C[C@H]1C[C@H]3[C@H](N(C)C)C(O)=C(C(N)=O)C(=O)[C@@]3(O)C(O)=C1C2=O [Tigecycline]
